{"source": "PubChem BioAssay (NCI)", "tested_on": "MDA-MB-468 breast", "assay": "growth of human tumour cells (NCI), 48 h", "note": "Several values for one entry are separate records, joined by “and”; a condition that tells them apart may be missing. Identical values can stand only once.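 Cultured in 96-well plates, cells were exposed to test compound for 48 hours across five concentrations. Here, GI50 denotes the concentration required for 50% inhibition of growth. TGI marks complete inhibition of growth.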"}
{"smiles": "COc1cnc2c(c1)C(=O)c1c-2n(CCCN2CCC(O)CC2)c(=O)c2cc(F)ccc12", "values": [{"measurement": "GI50", "result": 152, "unit": "nM"}, {"measurement": "TGI", "result": 438, "unit": "nM"}]}
{"smiles": "C=CC[P+](c1ccccc1)(c1ccccc1)c1ccccc1", "values": [{"measurement": "GI50", "result": 609, "unit": "nM"}, {"measurement": "TGI", "result": 9130, "unit": "nM"}]}
{"smiles": "Oc1c(CN2CCCC2)cc(COCc2ccc(Br)cc2)c2cccnc12", "values": [{"measurement": "GI50", "result": 602, "unit": "nM"}, {"measurement": "TGI", "result": 2140, "unit": "nM"}]}
{"smiles": "Cc1noc(C)c1-c1cc(O)cc(C(O)c2ccccc2)c1", "note": "(configuration not stated)", "values": [{"measurement": "GI50", "result": 1890, "unit": "nM"}, {"measurement": "TGI", "result": 40600, "unit": "nM"}]}
{"smiles": "O=C(Nc1ccc(Cl)cc1F)c1cc(I)ccc1O", "values": [{"measurement": "GI50", "result": 2100, "unit": "nM"}, {"measurement": "TGI", "result": 5450, "unit": "nM"}]}
{"smiles": "CC1=C2C(=C[C@@](C)(C=O)[C@@H]2O)C(=O)[C@](C)(O)C12CC2", "values": [{"measurement": "GI50", "result": 233, "unit": "nM"}, {"measurement": "TGI", "result": 764, "unit": "nM"}]}
{"smiles": "O=C(CCCN1CCOCC1)Nc1ccc(Cn2nnc3c2C(=O)c2nnn(Cc4ccc(NC(=O)CCCN5CCOCC5)cc4)c2C3=O)cc1", "values": [{"measurement": "GI50", "result": 304, "unit": "nM"}, {"measurement": "TGI", "result": 817, "unit": "nM"}]}
{"smiles": "COC(=O)[C@]12CC[C@@H](C)[C@H](C)[C@@H]1C1=CC[C@@H]3[C@@]4(C)C(C=O)=C[C@@](C)(COC(=O)c5ccco5)[C@@H]4C(=O)C[C@@]3(C)[C@]1(C)CC2", "values": [{"measurement": "GI50", "result": 277, "unit": "nM"}]}
{"smiles": "O=C(Nc1ccc(Oc2ccc3nc(NC(=O)c4ccccc4)[nH]c3c2)cc1)Nc1cc(C(F)(F)F)ccc1F", "values": [{"measurement": "GI50", "result": 625, "unit": "nM"}, {"measurement": "TGI", "result": 5450, "unit": "nM"}]}
{"smiles": "C[C@@H]1CC[C@@H]2[C@@H]1[C@H](OC(=O)/C=C/c1ccccc1)[C@]1(C3CCCCC3)C[C@@H](NC(=O)CO)[C@@]2(C)O1", "values": [{"measurement": "GI50", "result": 17100, "unit": "nM"}, {"measurement": "TGI", "result": 33500, "unit": "nM"}]}
{"smiles": "COc1cc2nccc(Oc3ccc(NC(=O)C4(C(=O)Nc5ccc(F)cc5)CC4)cc3)c2cc1Oc1ccc(N)cn1", "values": [{"measurement": "GI50", "result": 2450, "unit": "nM"}, {"measurement": "TGI", "result": 8820, "unit": "nM"}]}
{"smiles": "O=C(CF)N(O)c1ccc(/C=C/c2ccccc2)cc1", "values": [{"measurement": "GI50", "result": 64.2, "unit": "nM"}, {"measurement": "TGI", "result": 354, "unit": "nM"}]}
{"smiles": "N#Cc1ccc(N2Cc3ccccc3OC3=C2C(=O)c2c(O)ccc(O)c2C3=O)cc1", "values": [{"measurement": "GI50", "result": 132, "unit": "nM"}, {"measurement": "TGI", "result": 366, "unit": "nM"}]}
{"smiles": "Cc1cc(C2=NNC(=O)Cc3cc4c(cc32)OCCO4)cc(C)c1N", "values": [{"measurement": "GI50", "result": 523, "unit": "nM"}, {"measurement": "TGI", "result": 7240, "unit": "nM"}]}
{"smiles": "CN(C)CCOc1ccc(/C(=C(/CCCl)c2ccccc2)c2ccccc2)cc1", "values": [{"measurement": "GI50", "result": 682, "unit": "nM"}, {"measurement": "TGI", "result": 1520, "unit": "nM"}]}
{"smiles": "CCCC[N+](CCCC)=c1ccc2nc3c(C)cc(N(CC)CC)cc3sc-2c1", "values": [{"measurement": "GI50", "result": 39.1, "unit": "nM"}, {"measurement": "TGI", "result": 351, "unit": "nM"}]}
{"smiles": "CCN1C(=O)NC(=O)C(C)(N2C(=O)c3c(F)c(F)c(F)c(F)c3C2=O)C1=O", "note": "(configuration not stated)", "values": [{"measurement": "GI50", "result": 1750, "unit": "nM"}, {"measurement": "TGI", "result": 5680, "unit": "nM"}]}
{"smiles": "O=C(CN1CCN(c2ccc(Cl)cc2)CC1)N1CCN(c2nnc(-c3ccc(Cl)cc3)c(-c3ccc(Cl)cc3)n2)CC1", "values": [{"measurement": "GI50", "result": 18800, "unit": "nM"}, {"measurement": "TGI", "result": 65200, "unit": "nM"}]}
{"smiles": "CN1CCN(Cc2ccc(NC(=O)c3cncc(C#Cc4cncc5ncccc45)c3)cc2C(F)(F)F)CC1", "values": [{"measurement": "GI50", "result": 8720, "unit": "nM"}, {"measurement": "TGI", "result": 21800, "unit": "nM"}]}
{"smiles": "CC[C@H](Nc1nc(N)nc(C)c1C#N)c1nc2cccc(NCc3ccc(C(=O)NO)cc3)c2c(=O)n1-c1ccccc1", "values": [{"measurement": "GI50", "result": 1270, "unit": "nM"}, {"measurement": "TGI", "result": 4420, "unit": "nM"}]}
{"smiles": "CC1CCN(CCCCCOc2ccc3oc4cc(Cl)ccc4c(=O)c3c2)CC1", "values": [{"measurement": "GI50", "result": 6130, "unit": "nM"}, {"measurement": "TGI", "result": 13600, "unit": "nM"}]}
{"smiles": "CN1CCN(c2ccc3nc(-c4c(N)c5c(F)cccc5[nH]c4=O)[nH]c3c2)CC1", "values": [{"measurement": "GI50", "result": "1460 nM and 953 nM and 2300 nM"}, {"measurement": "TGI", "result": "3580 nM and > 2300 nM and 7030 nM"}]}
{"smiles": "O=[N+]([O-])c1ccc2c(N3CCC(CCCC4CCN(c5ncnc6cc([N+](=O)[O-])ccc56)CC4)CC3)ncnc2c1", "values": [{"measurement": "GI50", "result": 31.6, "unit": "nM"}, {"measurement": "TGI", "result": "> 100000", "unit": "nM"}]}
{"smiles": "CC(C)(C)c1[nH]cnc1/C=c1\\[nH]c(=O)/c(=C/c2ccccc2)[nH]c1=O", "values": [{"measurement": "GI50", "result": 22.6, "unit": "nM"}, {"measurement": "TGI", "result": 28600, "unit": "nM"}]}
{"smiles": "C#C[C@]1(O)CC[C@H]2[C@@H]3CC=C4c5sc(Nc6cccc(C)n6)nc5CC[C@]4(C)[C@H]3CC[C@@]21C", "values": [{"measurement": "GI50", "result": 2040, "unit": "nM"}, {"measurement": "TGI", "result": 5680, "unit": "nM"}]}
{"smiles": "O=C(Nc1cccc(Oc2nnc(Cl)c3ccccc23)c1)Nc1ccc(Cl)c(C(F)(F)F)c1", "values": [{"measurement": "GI50", "result": 689, "unit": "nM"}, {"measurement": "TGI", "result": 3430, "unit": "nM"}]}
{"smiles": "CC(C)(C#N)c1cc(F)cc(C(=O)Nc2cc(Nc3ncccc3-c3ncnc4nc[nH]c34)ccc2F)c1", "values": [{"measurement": "GI50", "result": "> 10000", "unit": "nM"}, {"measurement": "TGI", "result": "> 10000", "unit": "nM"}]}
{"smiles": "CC/C=C\\C/C=C\\C[C@H](O)C/C=C1/C(=O)C=C[C@@H]1C/C=C\\CCCC(=O)O", "values": [{"measurement": "GI50", "result": 2320, "unit": "nM"}, {"measurement": "TGI", "result": 6710, "unit": "nM"}]}
{"smiles": "COc1ccc(-c2nn(-c3cccc(NC(=O)c4ccc5c(c4)OCCO5)c3)cc2-c2ccncc2)cc1Cl", "values": [{"measurement": "GI50", "result": 1630, "unit": "nM"}, {"measurement": "TGI", "result": 6480, "unit": "nM"}]}
